Results as given in patent US5475014A, “Oxazolidone derivative” (Eisai Co., Ltd., priority 1991, dated 1995).
pIC50: −log10 of the molar value. Counter-ions that a name gives are not always drawn.

Legend:
MAO-B = target: T1, MAO-B (Rattus norvegicus, UniProt P19643); test: MAO-B inhibition activity with rat forebrain (14C-PEA substrate); format: biochemical, rat (male Wistar); conditions: for inhibition at 1 µM / Inhibiting activity MAO-B (% at 10^-6 M): 10^-6 M; for inhibition at 1 µM: read-out: Inhibiting activity MAO-B (% at 10^-6 M); for pIC50: PEA 20 μM, read-out: Inhibiting activity MAO-B, IC50
T1 construct: suspension of 1 part by volume of the forebrains of male Wistar rats; from tissue; host or cells: forebrain of male Wistar rats, suspension in potassium phosphate buffer
T1 sequence (P19643 1-520): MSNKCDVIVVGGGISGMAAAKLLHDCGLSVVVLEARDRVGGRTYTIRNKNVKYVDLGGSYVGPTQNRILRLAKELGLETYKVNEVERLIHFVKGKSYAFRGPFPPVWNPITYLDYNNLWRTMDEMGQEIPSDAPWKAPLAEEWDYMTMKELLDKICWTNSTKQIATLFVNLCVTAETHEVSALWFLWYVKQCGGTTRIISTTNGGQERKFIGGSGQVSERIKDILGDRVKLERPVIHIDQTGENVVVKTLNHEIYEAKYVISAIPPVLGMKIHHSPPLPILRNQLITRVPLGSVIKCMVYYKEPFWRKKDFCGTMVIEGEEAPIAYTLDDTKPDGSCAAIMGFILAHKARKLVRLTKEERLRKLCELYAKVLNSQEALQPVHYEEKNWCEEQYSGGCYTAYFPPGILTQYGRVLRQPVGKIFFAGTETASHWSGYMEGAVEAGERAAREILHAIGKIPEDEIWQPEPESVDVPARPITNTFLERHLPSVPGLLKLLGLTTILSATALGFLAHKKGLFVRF
Experimental: (§1) Determination of MAO inhibition activity with the use of rat forebrain:
(§2) The MAO inhibition activity was determined by a method of Prada et al. (J. Pharmacol. Exp. Ther., 248, 400-414 (1989)).
(§3) The enzyme reaction was conducted in 300 μl of a solution having the following composition:
(§4) ^14 C-labelled enzyme substrate
(§5) The enzyme source used was a suspension of 1 part by volume of the forebrains of male Wistar rats in 5 parts by volume of a 0.1M potassium phosphate buffer (pH 7.4). The enzyme source was mixed with the test compound and the mixture was prewarmed at 37° C. for 10 min. Then the enzyme substrate was added thereto to initiate the enzyme reaction. After 10 min, 200 μl of 2N hydrochloric acid was added to terminate the reaction.
(§6) As the substrates for MAO-A and MAO-B, 5-HT (serotonin) and PEA (β-phenethylamine) each labelled with ^14 C were used, respectively. The specific radioactivities of 5-HT and PEA were regulated to 11.1 MBq/mmol and 29.6 MBq/mmol, respectively, and the concentrations of them were 200 μM and 20 μM, respectively, in the reaction.
(§7) The test compound was dissolved in distilled water so that an intended concentration could be obtained in the enzyme reaction. When the test compound was insoluble in water, it was dissolved in dimethyl sulfoxide to obtain a 10% solution.
(§8) Diethyl ether and n-heptane were used as […], respectively. After the termination of the enzyme reaction, 3 ml of the solvent was added to the reaction mixture and shaken for 10 min. After centrifugation at 3,000 rpm for about 10 min, the lower aqueous layer was frozen in dry ice/acetone. The upper organic layer was recovered by decantation and the radioactivity thereof was determined with a liquid scintillation counter.
(§9) The inhibiting activities of the test compounds against MAO A and MAO B are given at the concentrations of 10^-7 M and 10^-6 M or by IC50 values.

MAO-A = target: T2, MAO-A (Rattus norvegicus, UniProt P21396); test: MAO-A inhibition activity with rat forebrain (14C-5-HT substrate); format: biochemical, rat (male Wistar); conditions: for inhibition at 0.1 µM / Inhibiting activity MAO-A (% at 10^-7 M): 10^-7 M; for inhibition at 0.1 µM: read-out: Inhibiting activity MAO-A (% at 10^-7 M); for pIC50: 5-HT 200 μM, read-out: Inhibiting activity MAO-A, IC50
T2 construct: suspension of 1 part by volume of the forebrains of male Wistar rats; from tissue; host or cells: forebrain of male Wistar rats, suspension in potassium phosphate buffer
T2 sequence (P21396 1-526): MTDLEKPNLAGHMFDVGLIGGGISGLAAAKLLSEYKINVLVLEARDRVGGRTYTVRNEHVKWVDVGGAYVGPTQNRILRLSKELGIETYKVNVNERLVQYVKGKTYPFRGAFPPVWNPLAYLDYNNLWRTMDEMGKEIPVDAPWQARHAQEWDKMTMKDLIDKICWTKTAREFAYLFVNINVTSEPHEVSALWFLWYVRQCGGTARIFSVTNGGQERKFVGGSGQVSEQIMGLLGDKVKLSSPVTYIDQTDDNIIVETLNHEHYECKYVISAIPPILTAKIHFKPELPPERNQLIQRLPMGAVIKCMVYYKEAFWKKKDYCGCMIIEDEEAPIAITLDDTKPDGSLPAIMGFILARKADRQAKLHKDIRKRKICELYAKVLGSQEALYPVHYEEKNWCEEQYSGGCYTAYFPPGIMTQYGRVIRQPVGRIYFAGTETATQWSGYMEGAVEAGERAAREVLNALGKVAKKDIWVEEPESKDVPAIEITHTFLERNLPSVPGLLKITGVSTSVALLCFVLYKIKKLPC
Experimental: as §1, §2, §3, §4, §5, §6, §7, §8, §9

Structure (SMILES)	inhibition at 1 µM (MAO-B)	inhibition at 0.1 µM (MAO-A)	further results
N#CCCNc1nc2ccc(N3CC(CO)OC3=O)cc2s1 (stereo not drawn) [Example 33]	10%	5%	
COCC1CN(c2ccc3sc(NC(=O)CC#N)nc3c2)C(=O)O1 (stereo not drawn) [Example 45]	10%	40%	
COCC1CN(c2ccc3nc(CCC#N)sc3c2)C(=O)O1 (stereo not drawn) [Example 15]			pIC50 (MAO-B): 3.31; pIC50 (MAO-A): 6.59
COCC1CN(c2ccc3nc(CCCCC#N)sc3c2)C(=O)O1 (stereo not drawn) [Example 20]	14%	15%	
COC[C@H]1CN(c2ccc3nc(CCCC#N)sc3c2)C(=O)O1 [Example 16]	17%	71%	
COC[C@@H]1CN(c2ccc3nc(CCCCC#N)sc3c2)C(=O)O1 [Example 22]	7%	75%	
COCC1CN(c2ccc3nc(COC(=O)c4ccccc4)sc3c2)C(=O)O1 (stereo not drawn) [Example 1, 3-(2-Benzoyloxymethylbenzothiazol-6-yl)-5-methoxymethyl-2-oxazolidinone]	15%	93%	
COCC1CN(c2ccc3nc(C(O)CCC#N)sc3c2)C(=O)O1 (stereo not drawn) [Example 27]			Inhibiting activity MAO-B (% at 10^-6 M) (MAO-B): 10%; pIC50 (MAO-A): 8.17
COCC1CN(c2ccc3nc(CCCC#N)sc3c2)C(=O)O1 (stereo not drawn) [Example 14]			pIC50 (MAO-B): 3.24; pIC50 (MAO-A): 7.85
CC(C)(CCC#N)c1nc2ccc(N3C[C@H](CO)OC3=O)cc2s1 [Example 26]	7%	73%	
COC[C@H]1CN(c2ccc3nc(C4CCC(O)O4)sc3c2)C(=O)O1 (stereo partly drawn) [Example 7]	10%	24%	
COCC1CN(c2ccc3nc(C(CCC#N)N4CCCC4)sc3c2)C(=O)O1 (stereo not drawn) [Example 40]	6%	8%	
COC[C@H]1CN(c2ccc3nc(N4CCC(C#N)CC4)sc3c2)C(=O)O1 [Example 13, (R)-3-[2-(4-Cyanopiperidino)benzothiazol-6-yl]-5-methoxymethy]-2-oxazolidinone hydrochloride]			pIC50 (MAO-B): 3.22; pIC50 (MAO-A): 6.54
N#CC1CCN(c2nc3ccc(N4CC(CO)OC4=O)cc3s2)CC1 (stereo not drawn) [Example 42]	5%	63%	
COC[C@H]1CN(c2ccc3nc(C(C)(C)CCC#N)sc3c2)C(=O)O1 [Example 25]	7%	73%	
COCC1CN(c2ccc3nc(C(O)CCCO)sc3c2)C(=O)O1 (stereo not drawn) [Example 30]	15%	42%	
COCC1CN(c2ccc3sc(CCCC#N)nc3c2)C(=O)O1 (stereo not drawn) [Example 47]	9%	52%	
COCC1CN(c2ccc3sc(C)nc3c2)C(=O)O1 (stereo not drawn) [Example 44]	4%	6%	
COCC1CN(c2ccc3nc(CO)sc3c2)C(=O)O1 (stereo not drawn) [Example 2, 3-(2-Hydroxymethylbenzothiazol-6-yl)-5-methoxymethyl-2-oxazolidinone]	11%	64%	
COCC1CN(c2ccc3nc(C4CCC(=O)O4)sc3c2)C(=O)O1 (stereo not drawn) [Example 5, 3-[2-(5-Oxotetrahydrofuran-2-yl)benzothiazol-6-ul]-5methoxymethyl-2-oxazolidinone]	11%		Inhibiting activity MAO-A (% at 10^-7 M) (MAO-A): 78%
COCC1CN(c2ccc3nc(COCC#N)sc3c2)C(=O)O1 (stereo not drawn) [Example 3]	11%		pIC50 (MAO-A): 8.30

Structure (SMILES)	inhibition at 1 µM (MAO-B)	inhibition at 0.1 µM (MAO-A)	further results
COCC1CN(c2ccc3nc(/C=C/CCC#N)sc3c2)C(=O)O1 (stereo not drawn) [Example 21]	8%	10%	
COCC1CN(c2ccc3nc(C4CCC(=O)O4)sc3c2)C(=O)O1 (stereo not drawn) [Example 34]			Inhibiting activity MAO-B (% at 10^-6 M) (MAO-B): 8%; Inhibiting activity MAO-A (% at 10^-7 M) (MAO-A): 11%
COCC1CN(c2ccc3nc(NCCC#N)sc3c2)C(=O)O1 (stereo not drawn) [Example 32]	7%	23%	
COCC1CN(c2ccc3nc(C(=O)CCC#N)sc3c2)C(=O)O1 (stereo not drawn) [Example 31]	12%	54%	
COC[C@H]1CN(c2ccc3nc(CCCCC#N)sc3c2)C(=O)O1 [Example 23]			pIC50 (MAO-B): < 4.00; pIC50 (MAO-A): 7.55
COCC1CN(c2ccc3nc(C(O)CC=NO)sc3c2)C(=O)O1 (stereo not drawn) [Example 8, 3-[2-(1-Hydroxy-3-hydroxyiminopropyl)benzothiazol-6-yl]-5-methoxymethyl-2-oxazolidinone]	13%	80%	
COCC1CN(c2ccc3nc(N(CCC#N)CCC#N)sc3c2)C(=O)O1 (stereo not drawn) [Example 43]	14%		inhibition at 1 µM (MAO-A; 10^-6 M, read-out: Inhibiting activity MAO-A (at 10^-6 M)): 87%
COCC1CN(c2ccc3nc(C(O)CCC#N)sc3c2)C(=O)O1 (stereo not drawn) [Example 35]		27%	Inhibiting activity MAO-B (% at 10^-6 M) (MAO-B): 0%
COC[C@H]1CN(c2ccc3nc([C@@H](O)CCC#N)sc3c2)C(=O)O1 [Example 9, 3-[2-(1(S)-Hydroxy-3-cyanopropyl)benzothiazol-6-yl]-5(R)-methoxymethyl-2-oxazolidinone]	13%	87%	
COCC1CN(c2ccc3nc(C(N)CCC#N)sc3c2)C(=O)O1 (stereo not drawn) [Example 41]	3%	9%	
COCC1CN(c2ccc3nc(C(CCC#N)=NOC)sc3c2)C(=O)O1 (stereo not drawn) [Example 39]	2%	15%	
COC[C@@H]1CN(c2ccc3nc(CCCC#N)sc3c2)C(=O)O1 [Example 17]	9%	24%	
CN(CCC#N)c1nc2ccc(N3CC(CO)OC3=O)cc2s1 (stereo not drawn) [Example 29]			pIC50 (MAO-B): 2.65; pIC50 (MAO-A): 7.72
N#CCCCCc1nc2ccc(N3C[C@H](CO)OC3=O)cc2s1 [Example 24]			pIC50 (MAO-B): < 4.00; pIC50 (MAO-A): 6.86
COCC1CN(c2ccc3nc(C(CCC#N)=NO)sc3c2)C(=O)O1 (stereo not drawn) [Example 38]	11%	32%	
N#CCCCc1nc2ccc(N3C[C@H](CO)OC3=O)cc2s1 [Example 18]			pIC50 (MAO-B): 3.03; pIC50 (MAO-A): 7.68
N#CCCCc1nc2ccc(N3C[C@@H](CO)OC3=O)cc2s1 [Example 19]	16%	61%	
COCC1CN(c2ccc3nc(CNCC#N)sc3c2)C(=O)O1 (stereo not drawn) [Example 4, 3-[(2-Cyanomethylaminomethylbenzothiazol)-6-yl]-5-methoxymethyl-2-oxazolidinone]	13%		pIC50 (MAO-A): 7.41
COCC1CN(c2ccc3nc(N(C)CCC#N)sc3c2)C(=O)O1 (stereo not drawn) [Example 28]			pIC50 (MAO-B): 3.00; pIC50 (MAO-A): 7.51
COCC1CN(c2ccc3sc(C(O)CCC#N)nc3c2)C(=O)O1 (stereo not drawn) [Example 46]	3%	7%	
COCC1CN(c2ccc3nc(C(C)(O)CCC#N)sc3c2)C(=O)O1 (stereo not drawn) [Example 36]	1%		pIC50 (MAO-A): 8.17
